These results are taken from patent US9499550B2 (BRISTOL-MYERS SQUIBB COMPANY, priority 2012, dated 2016).

As usually defined, the EC50 is the concentration giving half of the maximal effect.

Read-outs that look alike come from different tables or passages of the source.

The test system of experiment [1] is HCV genotype 1a (H77 strain) replicon in HUH-7 cells. Briefly: HCV replicon luciferase reporter assay, genotype 1a. The conditions noted are these: Hepatitis C virus, Huh-7, 72 h, HCV genotype 1a replicon luciferase, 3 days incubation. It counts as cell-based. The essentials: (§1)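 Replicon inhibition for both genotypes was measured as Renilla luciferase signal (EnduRen, 7.5 μM final, 2 h) after 3-day, 37° C exposure of replicon-bearing HUH-7 cells in 4% FCS DMEM, 0.5% DMSO. The 1b construct carries S1179I; the 1a H77 construct carries P1496L and S2204I. Twenty-point, 3-fold dilutions were fitted four-parametrically for EC50, and CC50 was taken from multiplexed Cell Titer-Blue.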
For orientation: In antiviral work, replicon cells carry a viral genome segment that copies itself.

The test system of experiment [2] is HCV genotype 1b (Con1) replicon in HUH-7 cells. Briefly: HCV replicon luciferase reporter assay, genotype 1b. It counts as cell-based. The conditions noted are these: Hepatitis C virus, Huh-7, 72 h, HCV genotype 1b replicon luciferase, 3 days incubation. In short, it runs like this: as §1

In the case of `[2H]C([2H])([2H])Oc1cc2ccnc(O[C@@H]3C[C@H]4C(=O)N[C@]5(C(=O)NS(=O)(=O)C6(C)CC6)C[C@H]5/C=C\CC[C@@H](C)C[C@@H](CC)[C@H](NC(=O)OC(C)(C)C(F)(F)F)C(=O)N4C3)c2cc1F` [Compound 5503], the EC50 in experiment [1] (read-out: LE_1a (EC50, range)) lay in the range of 1.01 to 5 nM; in experiment [2] (read-out: LE_1b (EC50, range)) it was 0.51 to 1 nM.
On to `[2H]C([2H])([2H])Oc1cc2ccnc(O[C@@H]3C[C@H]4C(=O)N[C@]5(C(=O)NS(=O)(=O)C6(C)CC6)C[C@H]5/C=C\CC[C@@H](C)C[C@@H](CC)[C@H](NC(=O)OC(C([2H])([2H])[2H])(C([2H])([2H])[2H])C(F)(F)F)C(=O)N4C3)c2cc1F` [Compound 5505], for which the EC50 in experiment [1] (read-out: LE_1a (EC50, range)) lay in the range of 5.01 to 35 nM; in experiment [2] (read-out: LE_1b (EC50, range)), 1.01 to 5 nM.
For `CC[C@@H]1C[C@H](C)CC/C=C\[C@@H]2C[C@@]2(C(=O)NS(=O)(=O)C2(C)CC2)NC(=O)[C@@H]2C[C@@H](Oc3nccc4cc(OC)ccc34)CN2C(=O)[C@H]1NC(=O)OC(C)(C)C(F)F` [Compound 5523, 1,1-difluoro-2-methylpropan-2-yl((2R,6S,7R,9R,13aS,14aR,16aS,Z)-7-ethyl-2-((6-methoxyisoquinolin-1-yl)oxy)-9-methyl-14a-(((1-methylcyclopropyl)sulfonyl)carbamoyl)-5,16-dioxo-1,2,3,5,6,7,8,9,10,11,13a,14,14a,15,16,16a-hexadecahydrocyclopropa[e]pyrrolo[1,2-a][1,4]diazacyclopentadecin-6-yl)carbamate], the EC50 in experiment [1] (read-out: LE_1a (EC50, range)) is 1.01 to 5 nM; in experiment [2] (read-out: LE_1b (EC50, range)) it was 0.51 to 1 nM.
Regarding `CCOc1cc2ccnc(O[C@@H]3C[C@H]4C(=O)N[C@]5(C(=O)NS(=O)(=O)C6(C)CC6)C[C@H]5/C=C\CC[C@@H](C)C[C@@H](CC)[C@H](NC(=O)OC(C)(C)C(F)F)C(=O)N4C3)c2cc1F` [Compound 5525, 1,1-difluoro-2-methylpropan-2-yl((2R,6S,7R,9R,13aS,14aR,16aS,Z)-2-((6-ethoxy-7-fluoroisoquinolin-1-yl)oxy)-7-ethyl-9-methyl-14a-(((1-methylcyclopropyl)sulfonyl)carbamoyl)-5,16-dioxo-1,2,3,5,6,7,8,9,10,11,13a,14,14a,15,16,16a-hexadecahydrocyclopropa[e]pyrrolo[1,2-a][1,4]diazacyclopentadecin-6-yl)carbamate], the EC50 lay in the range of 1.01 to 5 nM in experiment [1] (read-out: LE_1a (EC50, range)) and 0.51 to 1 nM in experiment [2] (read-out: LE_1b (EC50, range)).
As for `CC[C@@H]1C[C@H](C)CC/C=C\[C@@H]2C[C@@]2(C(=O)NS(=O)(=O)C2(C)CC2)NC(=O)[C@@H]2C[C@@H](Oc3nccc4cc(OC)c(F)cc34)CN2C(=O)[C@H]1NC(=O)OC(C)(C)C(F)F` [Compound 5527, 1,1-difluoro-2-methylpropan-2-yl((2R,6S,7R,9R,13aS,14aR,16aS,Z)-7-ethyl-2-((7-fluoro-6-methoxyisoquinolin-1-yl)oxy)-9-methyl-14a-(((1-methylcyclopropyl)sulfonyl)carbamoyl)-5,16-dioxo-1,2,3,5,6,7,8,9,10,11,13a,14,14a,15,16,16a-hexadecahydrocyclopropa[e]pyrrolo[1,2-a][1,4]diazacyclopentadecin-6-yl)carbamate], the EC50 in experiment [1] (read-out: LE_1a (EC50, range)) was in the range of 1.01 to 5 nM; in experiment [2] (read-out: LE_1b (EC50, range)), 0.51 to 1 nM.
Consider `CC[C@@H]1C[C@H](C)CC/C=C\[C@@H]2C[C@@]2(C(=O)NS(=O)(=O)C2(C)CC2)NC(=O)[C@@H]2C[C@@H](Oc3ncc(OC)c4ccc(F)cc34)CN2C(=O)[C@H]1NC(=O)OC(C)(C)C(F)F` [Compound 5529, 1,1-difluoro-2-methylpropan-2-yl((2R,6S,7R,9R,13aS,14aR,16aS,Z)-7-ethyl-2-((7-fluoro-4-methoxyisoquinolin-1-yl)oxy)-9-methyl-14a-(((1-methylcyclopropyl)sulfonyl)carbamoyl)-5,16-dioxo-1,2,3,5,6,7,8,9,10,11,13a,14,14a,15,16,16a-hexadecahydrocyclopropa[e]pyrrolo[1,2-a][1,4]diazacyclopentadecin-6-yl)carbamate], for which the EC50 is 1.01 to 5 nM in experiment [1] (read-out: LE_1a (EC50, range)) and 0.1 to 0.5 nM in experiment [2] (read-out: LE_1b (EC50, range)).
The matching figures for `CCOc1cnc(O[C@@H]2C[C@H]3C(=O)N[C@]4(C(=O)NS(=O)(=O)C5(C)CC5)C[C@H]4/C=C\CC[C@@H](C)C[C@@H](CC)[C@H](NC(=O)OC(C)(C)C(F)F)C(=O)N3C2)c2ccccc12` [Compound 5531, 1,1-difluoro-2-methylpropan-2-yl((2R,6S,7R,9R,13aS,14aR,16aS,Z)-2-((4-ethoxyisoquinolin-1-yl)oxy)-7-ethyl-9-methyl-14a-(((1-methylcyclopropyl)sulfonyl)carbamoyl)-5,16-dioxo-1,2,3,5,6,7,8,9,10,11,13a,14,14a,15,16,16a-hexadecahydrocyclopropa[e]pyrrolo[1,2-a][1,4]diazacyclopentadecin-6-yl)carbamate]: 1.01 to 5 nM and 0.51 to 1 nM.
For the compound `CC[C@@H]1C[C@H](C)CC/C=C\[C@@H]2C[C@@]2(C(=O)NS(=O)(=O)C2(C)CC2)NC(=O)[C@@H]2C[C@@H](Oc3ncc(OC)c4ccccc34)CN2C(=O)[C@H]1NC(=O)OC(C)(C)C(F)F` [Compound 5533, 1,1-difluoro-2-methylpropan-2-yl((2R,6S,7R,9R,13aS,14aR,16aS,Z)-7-ethyl-2-((4-methoxyisoquinolin-1-yl)oxy)-9-methyl-14a-(((1-methylcyclopropyl)sulfonyl)carbamoyl)-5,16-dioxo-1,2,3,5,6,7,8,9,10,11,13a,14,14a,15,16,16a-hexadecahydrocyclopropa[e]pyrrolo[1,2-a][1,4]diazacyclopentadecin-6-yl)carbamate], the EC50 in experiment [1] (read-out: LE_1a (EC50, range)) lay within 1.01 to 5 nM; in experiment [2] (read-out: LE_1b (EC50, range)), 0.1 to 0.5 nM.
On to `CC[C@@H]1C[C@H](C)CC/C=C\[C@@H]2C[C@@]2(C(=O)NS(=O)(=O)C2(C)CC2)NC(=O)[C@@H]2C[C@@H](Oc3nccc4c5c(ccc34)OCCO5)CN2C(=O)[C@H]1NC(=O)OC(C)(C)C(F)F` [Compound 5535, 1,1-difluoro-2-methylpropan-2-yl((2R,6S,7R,9R,13aS,14aR,16aS,Z)-2-((2,3-dihydro-[1,4]dioxino[2,3-f]isoquinolin-7-yl)oxy)-7-ethyl-9-methyl-14a-(((1-methylcyclopropyl)sulfonyl)carbamoyl)-5,16-dioxo-1,2,3,5,6,7,8,9,10,11,13a,14,14a,15,16,16a-hexadecahydrocyclopropa[e]pyrrolo[1,2-a][1,4]diazacyclopentadecin-6-yl)carbamate], for which the EC50 in experiment [1] (read-out: LE_1a (EC50, range)) was in the range of 5.01 to 35 nM; in experiment [2] (read-out: LE_1b (EC50, range)), 1.01 to 5 nM.
Turning to `CC[C@@H]1C[C@H](C)CC/C=C\[C@@H]2C[C@@]2(C(=O)NS(=O)(=O)C2CC2)NC(=O)[C@@H]2C[C@@H](Oc3ncc(OC)c4ccccc34)CN2C(=O)[C@H]1NC(=O)OC(C)(C)C(F)F` [Compound 5537, 1,1-difluoro-2-methylpropan-2-yl((2R,6S,7R,9R,13aS,14aR,16aS,Z)-14a-((cyclopropylsulfonyl)carbamoyl)-7-ethyl-2-((4-methoxyisoquinolin-1-yl)oxy)-9-methyl-5,16-dioxo-1,2,3,5,6,7,8,9,10,11,13a,14,14a,15,16,16a-hexadecahydrocyclopropa[e]pyrrolo[1,2-a][1,4]diazacyclopentadecin-6-yl)carbamate], the EC50 lay in the range of 0.51 to 1 nM in experiment [1] (read-out: LE_1a (EC50, range)) and 0.1 to 0.5 nM in experiment [2] (read-out: LE_1b (EC50, range)).
As to `CC[C@@H]1C[C@H](C)CC/C=C\[C@@H]2C[C@@]2(C(=O)NS(=O)(=O)C2CC2)NC(=O)[C@@H]2C[C@@H](Oc3nc(OC)cc4ccccc34)CN2C(=O)[C@H]1NC(=O)OC(C)(C)C` [Compound 6001, tert-butyl ((2R,6S,7R,9R,13aS,14aR,16aS,Z)-14a-((cyclopropylsulfonyl)carbamoyl)-7-ethyl-2-((3-methoxyisoquinolin-1-yl)oxy)-9-methyl-5,16-dioxo-1,2,3,5,6,7,8,9,10,11,13a,14,14a,15,16,16a-hexadecahydrocyclopropa[e]pyrrolo[1,2-a][1,4]diazacyclopentadecin-6-yl)carbamate], the EC50 in experiment [1] (read-out: LE_1a (EC50, range)) was less than 5.46 nM; in experiment [2] (read-out: LE_1b (EC50, range)), less than 5.46 nM.
Regarding `CC[C@@H]1C[C@@H](C)CC/C=C\[C@@H]2C[C@@]2(C(=O)NS(=O)(=O)C2CC2)NC(=O)[C@@H]2C[C@@H](Oc3nc(OC)cc4ccccc34)CN2C(=O)[C@H]1NC(=O)OC(C)(C)C(F)(F)F` [Compound 6002, 1,1,1-trifluoro-2-methylpropan-2-yl((2R,6S,7R,9S,13aS,14aR,16aS,Z)-14a-((cyclopropylsulfonyl)carbamoyl)-7-ethyl-2-((3-methoxyisoquinolin-1-yl)oxy)-9-methyl-5,16-dioxo-1,2,3,5,6,7,8,9,10,11,13a,14,14a,15,16,16a-hexadecahydrocyclopropa[e]pyrrolo[1,2-a][1,4]diazacyclopentadecin-6-yl)carbamate], the EC50 was 4.82 to 103 nM in experiment [1] (read-out: LE_1a (EC50, range)) and less than 5.46 nM in experiment [2] (read-out: LE_1b (EC50, range)).
Turning to `CC[C@@H]1C[C@H](C)CC/C=C\[C@@H]2C[C@@]2(C(=O)NS(=O)(=O)C2CC2)NC(=O)[C@@H]2C[C@@H](Oc3nc(OC)cc4ccccc34)CN2C(=O)[C@H]1NC(=O)OC(C)(C)C(F)(F)F` [Compound 6003, 1,1,1-trifluoro-2-methylpropan-2-yl((2R,6S,7R,9R,13aS,14aR,16aS,Z)-14a-((cyclopropylsulfonyl)carbamoyl)-7-ethyl-2-((3-methoxyisoquinolin-1-yl)oxy)-9-methyl-5,16-dioxo-1,2,3,5,6,7,8,9,10,11,13a,14,14a,15,16,16a-hexadecahydrocyclopropa[e]pyrrolo[1,2-a][1,4]diazacyclopentadecin-6-yl)carbamate], the EC50 was 1.33 nM in experiment [1] (read-out: LE_1a (EC50)); less than 5.46 nM in experiment [1] (read-out: LE_1a (EC50, range)); 0.22 nM in experiment [2] (read-out: LE_1b (EC50)); less than 5.46 nM in experiment [2] (read-out: LE_1b (EC50, range)).
